Results: patent US11628168B2, “Medical application of pyrimidine sulfonamides derivatives” (CHINESE PLA GENERAL HOSPITAL, priority 2018, dated 2023)

Columns and labels:
Assay type in all cases: in vivo, SD rats
[1] = tested on: right ventricular function of rats in low-pressure low-oxygen cabin; assay: Echocardiography of rats in low-pressure low-oxygen cabin (simulated altitude 5,500 m); settings: x±s
Protocol: (§1) 40 healthy SD rats (180-220 g, male) are purchased from Beijing Vital River Laboratory Animal Technology Co. Ltd, belong to the SPF grade and have the license number of SCXK(Jing)2016-0006. The healthy SD rats are fed in a low-pressure oxygen cabin, and regularly fed with a complete nutritional feed under the conditions of the temperature of 22 to 25° C. and the humidity of 30% to 50%.
(§2) Solvent configuration: 5% of DMSO and 95% of normal saline with 10% of HP-β-CD, and pH=9.
(§3) An experimental group A: a low-pressure low-oxygen cabin, and intragastric administration of sc0062 (15 mg/kg) as well as a solvent
(§4) An experimental group B: a low-pressure low-oxygen cabin, and intragastric administration of sc0062 (30 mg/kg) as well as a solvent
(§5) 40 rats are randomly divided into four groups, each group includes 10 rats, 3 groups are placed into a low-pressure low-oxygen cabin, the pressure of the oxygen cabin is regulated to 380 mmHg, a high altitude environment with an altitude of 5,500 meters is simulated, the low-pressure low-oxygen cabin is opened for 1 hour every day so as to add foods and water for animals and carry out corresponding medicine treatment, and meanwhile, the environment where the rats are positioned are kept alternate day and night according to a ratio of 12 h:12 h. After 3 groups of rats are in the oxygen-poor environment for 14 days, intragastric administration is respectively carried out on the 3 groups of rats, the solvent (the model group), the sc0062 (15 mg/kg) and the solvent (the experimental group A) and the sc0062 (30 mg/kg) and the solvent (the experimental group B) are respectively applied to the 3 groups of rats, and the operation is continued for 14 days. Rats in the fourth group (the blank control group) are placed in the same room to be fed in the normal-pressure normal-oxygen environment.
(§6) 3% pentobarbital sodium (0.2 mL/100 g) is intraperitoneally injected to anesthetize the rats, ultrasonic detection is carried out, and the following ultrasonic data is recorded: PAT/PET (pulmonary arterial blood flow acceleration time/right ventricular […]); right ventricular ejection fraction EF; a right ventricular fractional shortening FS; and tricuspid annular plane systolic excursion TAPSE. The anesthetize rats are fixed on an operating table in a supine position mode, tracheotomy is carried out, a breathing machine is connected, and thoracotomy is carried out to expose the hearts. A catheter is inserted into each right ventricle, and the right ventricular systolic pressure is recorded. Then each catheter is slowly pushed forwards, can reach a corresponding pulmonary artery through a corresponding right ventricular outflow tract, the pressure waveform of a monitor is observed, and the mean pulmonary arterial pressure mPAP is recorded. Blood is collected and the rats are executed. The hearts and the lung tissue are taken out, the atrial tissue and the root of the main artery are removed, left and right ventricles are separated, bloodstain is washed out in PBS, moisture is sucked up by filter paper, and the weight of the right ventricles (RV) and the weight of the left ventricles and the […] (LV+IS) are respectively weighed. Calculation is carried out according to the following formula: right ventricular hypertrophy index=RV/(LV+IS).
(§7) All the data is represented by x±s, comparison among the groups is single factor analysis of variance, when P<0.05, it represents that the difference has a statistical significance, and statistical treatment is carried out by adopting an SPSS 22.0 software package.

[2] = tested on: pulmonary arterial hypertension of model rats; assay: Rat haemodynamics: mean pulmonary arterial pressure by right heart catheter, low-pressure low-oxygen model; settings: for mPVP: x±s
Protocol: as §1, §2, §3, §4
40 rats are randomly divided into four groups, each group includes 10 rats, 3 groups are placed into a low-pressure low-oxygen cabin, the pressure of the oxygen cabin is regulated to 380 mmHg, a high altitude environment with an altitude of 5,500 meters is simulated, the low-pressure low-oxygen cabin is opened for 1 hour every day so as to add foods and water for animals and carry out corresponding medicine treatment, and meanwhile, the environment where the rats are positioned are kept alternate day and night according to a ratio of 12 h:12 h. […]
3% pentobarbital sodium (0.2 mL/100 g) is intraperitoneally injected to anesthetize the rats, ultrasonic detection is carried out, and the following ultrasonic data is recorded: PAT/PET (pulmonary arterial blood flow acceleration time/right ventricular […]); right ventricular ejection fraction EF; a right ventricular fractional shortening FS; and tricuspid annular plane systolic excursion TAPSE. […] A catheter is inserted into each right ventricle, and the right ventricular systolic pressure is recorded. Then each catheter is slowly pushed forwards, can reach a corresponding pulmonary artery through a corresponding right ventricular outflow tract, the pressure waveform of a monitor is observed, and the mean pulmonary arterial pressure mPAP is recorded. […]

[3] = tested on: right ventricular hypertrophy of rats in low-pressure low-oxygen cabin; assay: Rat right ventricular hypertrophy index, low-pressure low-oxygen model; settings: for Full heart / RV (weight of the right ventricles) / RV/(LV + IS) right ventricular hypertrophy index: x±s
Protocol: as §1, §2, §3, §4, §5, §6, §7

[4] = 15 mg/kg intragastric for 14 days after 14 days hypoxia (380 mmHg)
[5] = 30 mg/kg intragastric for 14 days after 14 days hypoxia (380 mmHg)

COCCNS(=O)(=O)Nc1ncnc(OCCOc2ncc(Br)cn2)c1-c1ccc2c(c1)OCO2 [sc0062]
PAT/PET [1, 4]: 0.39 ± 0.07
Right ventricular EF [1, 4]: 67.25 ± 13.01
Right ventricular FS [1, 4]: 37.02 ± 10.63
TAPSE [1, 4]: 2.05 ± 0.29
PAT/PET [1, 5]: 0.40 ± 0.07
Right ventricular EF [1, 5]: 71.32 ± 9.35
Right ventricular FS [1, 5]: 39.76 ± 7.24
TAPSE [1, 5]: 1.93 ± 0.44
mPVP [2, 4]: 31.39 ± 3.90
mPVP [2, 5]: 26.91 ± 4.35
mean pulmonary arterial pressure compared with the model group ([2]; experimental groups A and B (15 and 30 mg/kg), p<0.01): significantly raised
Full heart [3, 4]: 1.47 ± 0.24
RV (weight of the right ventricles) [3, 4]: 0.56 ± 0.09
RV/(LV + IS) right ventricular hypertrophy index [3, 4]: 0.38 ± 0.02
Full heart [3, 5]: 1.30 ± 0.21
RV (weight of the right ventricles) [3, 5]: 0.48 ± 0.11
RV/(LV + IS) right ventricular hypertrophy index [3, 5]: 0.36 ± 0.02
right ventricular hypertrophy index compared with the model group ([3]; experimental groups A and B (15 and 30 mg/kg), p<0.05): reduced
